{
  "source": "patent US20250152550A1",
  "about": "“LYMPH-TARGETING FORMULATIONS” (Monash University, priority 2021, published 2025)",
  "key": {"[1]": {"format": "in vivo", "conditions": "intestinal and IV groups; below the limit of quantitation", "protocol": "Systemic availability was determined in lymph-intact anaesthetised rats with cannulas inserted into the carotid artery and duodenum for blood collection and formulation infusion, respectively. To enable the calculation of absolute bioavailability an additional group was administered orlistat intravenously via a jugular vein cannula, and blood samples collected from a carotid artery cannula over time.\nTo enable determination of systemic availability following intestinal dosing of selected formulations (i.e. the 40 mg oleic acid and olive oil formulations containing 8 mg/kg orlistat) a separate group of lymph-intact animals (i.e. non-lymph cannulated) were cannulated at the duodenum and carotid artery to enable formulation administration and blood collection, respectively. After surgery the rats were hydrated via intraduodenal infusion of 2.8 ml/h normal saline for at least 30 min, followed by intraduodenal infusion of the formulations at 2.8 ml/h for 2 h. […]\nFor the plasma pharmacokinetic studies, the absolute bioavailability following intestinal delivery of orlistat was calculated from:\nWhere AUC0-8h intestinally administered and IV administered are the area under the plasma concentration time curves from time 0 to 8 h after intestinal and IV administration, respectively. Plasma AUCs were calculated using the linear trapezoidal method."}, "[2]": {"experiment": "Lymph and plasma pharmacokinetics of orlistat in acute pancreatitis rats", "format": "in vivo, rat", "conditions": "AP rats relative to healthy animals", "source_text": "FIG. 4 illustrates lymph and plasma pharmacokinetics of orlistat in lymph diverted or lymph intact sham or acute pancreatitis (AP) rats intestinally administered a blank long chain fatty acid (LC-FA), orlistat LC-FA (LC-FA+O), or orlistat lipid free formulation (LFF+O). Dose-normalised lymph concentration of total orlistat (open and closed ring forms) over time (Panel A), cumulative lymphatic transport of total orlistat (open and closed ring forms) over time (Panel B), gut-lymph concentrations of triglyceride (TG) (Panel C), cumulative TG mass transport in gut-lymph (Panel D), dose-normalised plasma concentrations of total orlistat (open and closed ring forms) (Panel E), and lymph to plasma concentration ratios of orlistat (Panel F) over time. […]\nIn the previous study it was determined in healthy rats that orlistat administration in a long chain fatty acid (LC-FA) formulation promotes lymphatic drug transport when compared to administration in a lipid free formulation (LFF). […] Blood pressure and heart rate were also determined. […]\nAfter initiation of dosing of the formulations, lymph was collected continuously for the duration of the experiment (i.e. up to 4 h post initiation of formulation dosing) into pre-weighed 1.5 ml tubes that were kept in an ice bath. Lymph collection tubes were changed every hour and lymph flow was determined gravimetrically. […]"}, "[3]": {"conditions": "cited from earlier work"}, "[4]": {"conditions": "healthy volunteers, oral, standard capsule formulations"}},
  "data": [
    {"smiles": "CCCCCCCCCCC[C@@H](C[C@@H]1OC(=O)[C@H]1CCCCCC)OC(=O)[C@H](CC(C)C)NC=O", "note": "[orlistat]", "values": [
      {"measurement": "Plasma concentration of closed ring form of orlistat", "setting": "[1]", "value": "< 50", "unit": "ng/mL"},
      {"measurement": "Gut-lymph uptake of orlistat in animals with AP", "setting": "[2]", "value": "attenuated relative to healthy animals"},
      {"measurement": "Dose recovered in the faeces", "setting": "[3]; [4]", "value": "more than 97%"},
      {"measurement": "Dose recovered in the faeces in a non-metabolised form", "setting": "[3]; [4]", "value": 83.1, "unit": "%"},
      {"measurement": "Absorption and bioavailability of orlistat", "setting": "[3]; oral administration in standard formulations, fed or fasted state", "value": "< 1", "unit": "% dose"}
    ]}
  ]
}
